Assay results taken from patent US11091494B2, “Crystal form of acalabrutinib and preparation method and use thereof” (Crystal Pharmaceutical (Suzhou) Co., Ltd., priority 2018, dated 2021).

Experiments:
Type in all cases: physicochemical
[1] = Stability of crystalline form on storage, checked by XRPD; conditions: for Solid form: XRPD; for Chemical purity on storage: at least 2 months
Method: Approximately 10 mg of Form A of the present disclosure was weighed and stored at different conditions of 25° C./60% RH in open dish, 25° C./60% RH in closed dish, 40° C./75% RH in open dish, and 40° C./75% RH in closed dish. Crystalline forms were checked by XRPD.
Approximately 10 mg of Form D of the present disclosure was weighed and stored at different conditions of 25° C./60% RH in closed dish, 25° C./60% RH in open dish, 40° C./75% RH in closed dish. Crystalline form was checked by XRPD.
Approximately 10 mg of Form F of the present disclosure was weighed and stored at different conditions of 25° C./60% RH in closed dish, 25° C./60% RH in open dish, and 40° C./75% RH in closed dish, 40° C./75% RH in open dish. Crystalline forms were checked by XRPD.
Approximately 10 mg of Form G of the present disclosure was weighed and stored at 25° C./60% RH in closed dish. Crystalline forms were checked by XRPD.
Approximately 10 mg of Form CS15 of the present disclosure was weighed and stored at different conditions of 25° C./60% RH in open dish, 25° C./60% RH in closed dish. Crystalline forms were checked by XRPD.

[2] = Intrinsic dissolution rate in pH 2.5 HCl/NaCl aqueous solution; conditions: for Cumulative dissolution / IDR (intrinsic dissolution rate): pH 2.5 HCl/NaCl, 37° C.; for Cumulative dissolution: 0.5 cm^2 pellet; for IDR relative to that of Form I in WO2017002095A1: pH 2.5 HCl/NaCl solution; for IDR (intrinsic dissolution rate): slope over 0-45 minutes
Method: (§1) Approximately 200 mg of Form A and Form I in WO2017002095A1 were added into the die, compressed at 10 kN and held for 1 minute to obtain a pellet having a surface area of 0.5 cm^2. The whole tool with the pellet was transferred to a dissolution apparatus to test the intrinsic dissolution rate. The slope (mg/min) was calculated according to the data within 0-45 minutes. Intrinsic dissolution rate (IDR, mg/min/cm^2) was further calculated according to the slope.
as §1, with “Form D” for “Form A”
as §1, with “Form F” for “Form A”, “intrinsic dissolution.” for “intrinsic dissolution rate.”
as §1, with “Form G” for “Form A”, “intrinsic dissolution.” for “intrinsic dissolution rate.”
as §1, with “Form CS15” for “Form A”, “intrinsic dissolution.” for “intrinsic dissolution rate.”

[3] = Hygroscopicity by dynamic vapor sorption (DVS); conditions: 80% RH, 25° C.; for Hygroscopicity: Chinese Pharmacopoeia 2015 definition; for Weight gain: DVS
Method: Dynamic vapor sorption (DVS) was applied to test hygroscopicity of Form A with about 10 mg of sample. Weight changes at each relative humidity were recorded in a cycle of 0-95%-0 RH at 25° C.±1° C.
(§2) Description and definition of hygroscopicity (general notice 9103 drug hygroscopicity test guidelines in 2015 edition of Chinese Pharmacopoeia, test at 25° C.+/−1° C., 80% RH). • deliquescent: Sufficient water is absorbed to form a liquid; • very hygroscopic: Increase in mass is equal to or greater than 15 percent; • hygroscopic: Increase in mass is less than 15 percent and equal to or greater than 2 percent; • slightly hygroscopic: Increase in mass is less than 2 percent and equal to or greater than 0.2 percent. • non hygroscopic or almost non hygroscopic: Increase in mass is less than 0.2%.
(§3) Dynamic vapor sorption (DVS) was applied to test hygroscopicity of Form F with about 10 mg of sample. Weight changes at each relative humidity were recorded in a cycle of 0-95%-0 RH at 25° C.±1° C. DVS plot is substantially as depicted in FIG. 32, and XRPD patterns before and after DVS are compared in FIG. 33.
as §2, with “C. +/−1°” for “C.+/−1°”
as §3, with “Form CS15” for “Form F”, “FIG. 38,” for “FIG. 32,”, “FIG. 39.” for “FIG. 33.”

[4] = 25° C./60% RH in closed dish, 2 months
[5] = 25° C./60% RH in open and closed dishes
[6] = 25° C./60% RH in open dish, 2 months
[7] = 40° C./75% RH in closed dish, 2 months
[8] = 40° C./75% RH in open dish, 2 months

| Time kept stable (crystalline state doesn't change) ([1]; 25° C./60% RH in closed dish) | Solid form [1, 4] | Solid form ([1]; Initial) | Cumulative dissolution ([2]; 0 min) [mg] | Cumulative dissolution ([2]; 5 min) [mg] | Cumulative dissolution ([2]; 10 min) [mg] | Cumulative dissolution ([2]; 15 min) [mg] | Cumulative dissolution ([2]; 20 min) [mg] | Cumulative dissolution ([2]; 25 min) [mg] | Cumulative dissolution ([2]; 30 min) [mg] | Cumulative dissolution ([2]; 35 min) [mg] | Cumulative dissolution ([2]; 45 min) [mg] | IDR relative to that of Form I in WO2017002095A1 [2] [times] | IDR (intrinsic dissolution rate) [2] [mg/min/cm^2] | Weight gain [3] [%] | Chemical purity on storage [1, 5] | Time kept stable (crystalline state doesn't change) ([1]; 25° C./60% RH in open dish) | Solid form [1, 6] | Time kept stable (crystalline state doesn't change) ([1]; 40° C./75% RH in closed dish) | Compound | Hygroscopicity [3] | further results |
| --- | --- | --- | --- | --- | --- | --- | --- | --- | --- | --- | --- | --- | --- | --- | --- | --- | --- | --- | --- | --- | --- |
| at least 2 months | Form G | Form G | 0.00 | 1.28 | 2.36 | 3.68 | 4.76 | 5.51 | 6.71 | 7.65 | 9.50 | 1.2 | 0.4396 |  |  |  |  |  | CC#CC(=O)N1CCC[C@H]1c1nc(-c2ccc(C(=O)Nc3ccccn3)cc2)c2c(N)nccn12 [Form G, (S)-4-(8-amino-3-(1-(but-2-ynoyl)pyrrolidin-2-yl)imidazo[1,5-a]pyrazin-1-yl)-N-(pyridin-2-yl)benzamide] |  | Chemical purity on storage ([1]; 25° C./60% RH in closed dish): remains substantially unchanged |
| at least 2 months | Form CS15 | Form CS15 | 0.00 | 1.06 | 2.34 | 4.20 | 5.60 | 7.89 | 8.86 | 10.60 | 12.41 | 1.6 | 0.5778 | 1.78 | remains substantially unchanged | at least 2 months | Form CS15 |  | CC#CC(=O)N1CCC[C@H]1c1nc(-c2ccc(C(=O)Nc3ccccn3)cc2)c2c(N)nccn12 [Form CS15, (S)-4-(8-amino-3-(1-(but-2-ynoyl)pyrrolidin-2-yl)imidazo[1,5-a]pyrazin-1-yl)-N-(pyridin-2-yl)benzamide] | slightly hygroscopic (Increase in mass is less than 2 percent and equal to or greater than 0.2 percent) |  |
| at least 2 months | Form F |  | 0.00 | 1.31 | 2.47 | 3.99 | 5.30 | 6.50 | 7.26 | 8.74 | 10.44 | 1.3 | 0.4898 | 0.09 | remains substantially unchanged | at least 2 months | Form F | at least 2 months | CC#CC(=O)N1CCC[C@H]1c1nc(-c2ccc(C(=O)Nc3ccccn3)cc2)c2c(N)nccn12 [Form F, (S)-4-(8-amino-3-(1-(but-2-ynoyl)pyrrolidin-2-yl)imidazo[1,5-a]pyrazin-1-yl)-N-(pyridin-2-yl)benzamide] | non hygroscopic or almost non hygroscopic (Increase in mass is less than 0.2%) | Solid form [1, 7]: Form F; Time kept stable (crystalline state doesn't change) ([1]; 40° C./75% RH in open dish): at least 2 months; Solid form [1, 8]: Form F |
| at least 2 months | Form A | Form A | 0.00 | 1.13 | 2.42 | 3.80 | 4.73 | 5.79 | 6.72 | 7.83 | 9.93 | 1.2 | 0.4520 | 0.99 | remains substantially unchanged | at least 2 months | Form A | at least 2 months | CC#CC(=O)N1CCC[C@H]1c1nc(-c2ccc(C(=O)Nc3ccccn3)cc2)c2c(N)nccn12 [Form A, (S)-4-(8-amino-3-(1-(but-2-ynoyl)pyrrolidin-2-yl)imidazo[1,5-a]pyrazin-1-yl)-N-(pyridin-2-yl)benzamide] | slightly hygroscopic (Increase in mass is less than 2 percent and equal to or greater than 0.2 percent) | Solid form [1, 7]: Form A; Time kept stable (crystalline state doesn't change) ([1]; 40° C./75% RH in open dish): at least 2 months; Solid form [1, 8]: Form A |
